The text below walks through data of patent publication US11814652B2, “Pluripotent stem cell differentiation-promoting agent” (Oriental Yeast Co., Ltd., priority 2018, dated 2023).

Assay [1] has as its system iPS cells 201B7 strain. Description: Flow cytometry of Nestin/PAX6 after ectodermal differentiation-induction following undifferentiated culture with β-NMN (Example 7). Type of assay: cell-based, human. Conditions: β-NMN 0.25 or 1 mM before ectodermal differentiation-induction; 7th or 9th day; versus absence of β-NMN. Here is the method:
The effects of culturing in the presence of β-NMN before induction of differentiation on the ectodermal differentiation-induction of iPS cells was examined. As the iPS cells, the 201B7 strain was used. The iPS cells were cultured in a culture dish in the same manner as in Example 5, and when the confluent reached 70 to 80%, the iPS cells were detached from the culture dish and collected. The collected iPS cells were seeded at 3×10^5 cells/well in a 24-well plate coated with Matrigel (manufactured by Corning Incorporated) according to the manufacturer's protocol. The cells in the 24-well plate were cultured for 1 day in a culture medium prepared by removing β-NMN from the culture medium when culturing in the culture dish and adjusting to have a final concentration of Rock inhibitor of 10 μM. From the 1st day after seeding, the medium was replaced every day with a culture medium for ectodermal differentiation-induction of “STEMdiff Trilineage Differentiation kit” (manufactured by STEMCELL Technologies). In the same manner as in Example 2, the cells sampled on the 7th or 9th day after seeding were stained with a fluorescently labeled anti-Nestin antibody and a fluorescently labeled anti-PAX6 antibody, and a flow cytometer was used to analyze the fluorescence intensity of the anti-Nestin antibody and the fluorescence intensity of the anti-PAX6 antibody in each sample. […]

The test system of assay [2] is iPS cells 253G1 strain. The assay can be described thus: Flow cytometry of Sox17/CXCR4 endodermal markers, differentiation-induction in medium with β-NMN (Example 4). Type of assay: cell-based. As to conditions: endodermal differentiation-inducing medium with β-NMN 0.1, 0.25 or 1 mM; 5th or 7th day; versus absence of β-NMN. Here is the method: The effects of β-NMN on the induction of endodermal differentiation of iPS cells were examined. As the iPS cells, the 253G1 strain was used. The iPS cells were seeded in a 24-well plate coated with Matrigel (manufactured by Corning Incorporated) according to the manufacturer's protocol at 3×10^5 cells/well. The cells in the 24-well plate were cultured in a culture medium for iPS cells adjusted to have a final concentration of Rock inhibitor of 10 μM for 1 day. From the 1st day after seeding, the culture medium was replaced with a culture medium prepared by adjusting an endoderm differentiation-inducing culture medium of “STEMdiff Trilineage Differentiation kit” (manufactured by STEMCELL Technologies) to have a final concentration of β-NMN of 0, 0.1, 0.25, or 1 mM for 1 day. […] Then, the cells were stained with a fluorescence-labeled anti-Sox17 antibody (manufactured by Becton, Dickinson and Company, clone P7-969) and a fluorescence-labeled anti-CXCR4 antibody (manufactured by Biolegend, clone 12G5). After washing the stained cells, a flow cytometer “FACS caliber” (manufactured by Becton, Dickinson and Company) was used to analyze the fluorescence intensity of the anti-Sox17 antibody and the fluorescence intensity of the anti-CXCR4 antibody in each sample. […]
(In general: A flow cytometer gives signals particle by particle.)

In assay [3] the test system is iPS cells 253G1 strain. Description: Cell number during endodermal differentiation-induction in medium with β-NMN (Example 4). Type of assay: cell-based. Conditions: endodermal differentiation-inducing medium containing β-NMN 0.1, 0.25 or 1 mM; 7th day after seeding; versus medium not containing β-NMN. As for the experimental part:
The effects of β-NMN on the induction of endodermal differentiation of iPS cells were examined. As the iPS cells, the 253G1 strain was used. The iPS cells were seeded in a 24-well plate coated with Matrigel (manufactured by Corning Incorporated) according to the manufacturer's protocol at 3×10^5 cells/well. The cells in the 24-well plate were cultured in a culture medium for iPS cells adjusted to have a final concentration of Rock inhibitor of 10 μM for 1 day. From the 1st day after seeding, the culture medium was replaced with a culture medium prepared by adjusting an endoderm differentiation-inducing culture medium of “STEMdiff Trilineage Differentiation kit” (manufactured by STEMCELL Technologies) to have a final concentration of β-NMN of 0, 0.1, 0.25, or 1 mM for 1 day. The culture medium was replaced with a culture medium prepared by adjusting an endodermal differentiation-inducing culture medium to have final concentrations of both β-NMN and Rock inhibitor of 10 μM only on the 1st day after seeding. Cells of the 7th day after seeding were sampled and the cell numbers were counted. As a result, the number of the cells cultured in the endodermal differentiation-inducing culture medium containing β-NMN was larger than the number of the cells cultured in the medium not containing β-NMN.

In assay [4] the test system is iPS cells 201B7 strain. Description: Flow cytometry of Brachyury/CD56 after mesodermal differentiation-induction following undifferentiated culture with β-NMN (Example 6). Conditions: β-NMN 0.25 or 1 mM before mesodermal differentiation-induction; 5th or 7th day; versus absence of β-NMN. It counts as cell-based, human. Here is the method:
The effects of culturing in the presence of β-NMN before induction of differentiation on the mesodermal differentiation-induction of iPS cells was examined. As the iPS cells, the 201B7 strain was used. The iPS cells were cultured in a culture dish in the same manner as in Example 5, and when the confluent reached 70 to 80%, the iPS cells were detached from the culture dish and collected. The collected iPS cells were seeded at 1×10^5 cells/well in a 24-well plate coated with Matrigel (manufactured by Corning Incorporated) according to the manufacturer's protocol. The cells in the 24-well plate were cultured for 1 day in a culture medium prepared by removing β-NMN from the culture medium when culturing in the culture dish and adjusting to have a final concentration of Rock inhibitor of 10 μM. From the 1st day after seeding, the medium was replaced every day with a culture medium for mesodermal differentiation-induction of “STEMdiff Trilineage Differentiation kit” (manufactured by STEMCELL Technologies). In the same manner as in Example 3, the cells sampled on the 5th or 7th day after seeding were stained with a fluorescently labeled anti-Brachyury antibody and a fluorescently labeled anti-CD56 antibody, and a flow cytometer was used to analyze the fluorescence intensity of the anti-Brachyury antibody and the fluorescence intensity of the anti-CD56 antibody in each sample. […]

Structures are written as SMILES.

Regarding `NC(=O)c1ccc[n+]([C@@H]2O[C@H](COP(=O)([O-])O)[C@@H](O)[C@H]2O)c1` [β-NMN, β-nicotinamide mononucleotide], the “ratio of Nestin-positive PAX6-positive cells” value in assay [1] was “no clear difference”. Moreover, the “ratio of Sox17-positive CXCR4-positive cells” value in assay [2] is on record as “no clear difference”. In addition, in assay [3], the “number of the cells” value is recorded as “larger”. For the same molecule, in assay [4], the “ratio of Brachyury-positive CD56-positive cells” value is given as “no clear difference”.
